Test results published in patent publication EP0565593B1, “REDUCING PESTICIDAL INTERACTIONS IN CROPS” (priority 1990, dated 1992).
Like-named read-outs stand apart in the source and are kept apart here.

Experiments:
Velvetleaf (VELE) [1] = assay type: in vivo, Abutilon theophrasti
Velvetleaf (VELE) [2] = test: Greenhouse test Procedure VII (same examples); assay type: in vivo, Abutilon theophrasti; conditions: Antidote + Biocide No. 1 in furrow
Text: This procedure describes interaction among herbicide, biocide and antidote when the biocide and the antidote is applied to a soil furrow containing crop seed before emergence of the crop and the herbicide is applied after emergence of the crop and weeds. The soil and planting depth was described in Procedure IV. The containers for comparison, the biocide and antidote applications to soil furrows were described in Procedure VI. In this procedure, the seed beds of the first, second, third and fourth containers are covered by soil layers not treated with herbicide. The containers were then placed on a bench in a greenhouse and subirrigated as required for the duration of the test. The herbicide, dispersed or dissolved in water containing 0.25% v/v nonionic surfactant (X-77) was applied by a track sprayer (187 L/ha) to the emerged plants of the second, third and fourth containers about five days after planting. All treatments were run in duplicate. Plant response was observed according to Procedure IV. Variations in this procedure will be noted in the examples.
In this example, tests were conducted according to Procedure VII for the POE application of the herbicides following in-furrow application of COUNTER® 15G insecticide (BIOCIDE No. 1) and the antidote on the pre-planted test seeds. In this test, the herbicides were Nos. 1 (MON-12000), 10 (ALLY®) and #4 (HARMONY®) and the Antidote Nos. 1, 7, 12 and 33.
These in-furrow treatments comprised a 50-50 mix of blended granules of COUNTER with and without 5G granular antidotes at 7.4 + 7.4 mg/cm or 1.1 + 0.37 mg active ingredient (a.i.)/cm. The in-furrow initiation of the test was followed five (5) days later with POE application of the herbicides; observations were made eight (8) days later. Table 38 […]

N#CCOc1ccc(Cl)c2cccnc12 [compound 33]
% Inhibition 5 DAP VELE (Velvetleaf (VELE) [1]; Antidote 4.48 + Biocide No. 1 8.96 Kg/Ha PPI, Herb. No. 8 0.07, 5 DAP, before herbicide application): 50% | % Inhibition 13 DAP VELE (Velvetleaf (VELE) [1]; Antidote 4.48 + Biocide No. 1 8.96 Kg/Ha PPI, Herb. No. 8 0.07 POE, 13 DAP): 95% | % Inhibition VELE (Velvetleaf (VELE) [1]; Antidote 4.48 + Biocide No. 1 8.96 Kg/Ha PPI, Herbicide No. 7 0.28 POE, 13 days after planting): 70% | % Inhibition 5 DAP VELE (Velvetleaf (VELE) [1]; Herb. […], 5 DAP, before herbicide application): 30% | % Inhibition VELE (Velvetleaf (VELE) [1]; Table 14: Herbicide No. 7 (ACCENT) 0.84 Kg/Ha POE + Biocide No. 2 8.96 Kg/Ha PPI + antidote 4.48 Kg/Ha PPI, 13 days after planting, 8 days after herbicide): 75% | % Inhibition VELE (Velvetleaf (VELE) [1]; […], 13 days after planting, 8 days after herbicide): 70% | % Inhibition VELE (Velvetleaf (VELE) [1]; […], observed 10 days after herbicide application): 85% | % Inhibition 5 DAP VELE (Velvetleaf (VELE) [1]; in vivo): 60% | % Inhibition 13 DAP VELE (Velvetleaf (VELE) [1]; in vivo): 90% | % Inhibition VELE (Velvetleaf (VELE) [2]; Herbicide No. 1 0.14 Kg/Ha POE, 8 days after POE): 90% | % Inhibition VELE (Velvetleaf (VELE) [2]; Herbicide No. 4 0.17 Kg/Ha POE, 8 days after POE): 90% | % Inhibition VELE (Velvetleaf (VELE) [2]; Herbicide No. 5 0.07 Kg/Ha POE, 8 days after POE): 90% | % Inhibition VELE (Velvetleaf (VELE) [2]; Herbicide No. 6 0.01 Kg/Ha POE): 65% | % Inhibition VELE (Velvetleaf (VELE) [2]; Herbicide No. 7 0.56 Kg/Ha POE, 8 days after POE): 65% | % Inhibition VELE (Velvetleaf (VELE) [2]; Herbicide No. 9 0.009 Kg/Ha POE): 85% | % Inhibition VELE (Velvetleaf (VELE) [2]; Herbicide No. 10 0.002 Kg/Ha POE, 8 days after POE): 90% | % Inhibition VELE (Velvetleaf (VELE) [2]; Herbicide No. 15 0.0044 Kg/Ha POE, 8 days after POE): 80% | % Inhibition VELE (Velvetleaf (VELE) [2]; Herbicide No. 16 0.01 Kg/Ha POE): 40% | % Inhibition VELE (Velvetleaf (VELE) [2]; Herbicide No. 18 0.0044 Kg/Ha POE): 65% | % Inhibition VELE (Velvetleaf (VELE) [2]; Herbicide No. 19 0.28 Kg/Ha POE): 60% | % Inhibition VELE (Velvetleaf (VELE) [2]; Herbicide No. 21 0.14 Kg/Ha POE): 90% | % Inhibition VELE (Velvetleaf (VELE) [2]; Herbicide No. 23 0.0006 Kg/Ha POE): 70%
